Test results: patent US8389523B2, “Substituted quinoxaline and an agrochemical composition thereof” (Kumiai Chemical Industry Co., Ltd., priority 2007, dated 2013)

Experiments:
Type in all cases: in vivo
Parameters in all cases: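 grade 0 to 5 of growth suppression where 5 is 90% or more and 0 below 10%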
[1] = system: Abutilon theophrasti medicus; assay: Herbicidal effects in upland field soil treatment (Test Example 2); conditions: 1000 g active ingredient per hectare, 21st day after treatment, criteria of Table 138
Outline: (§1)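 Upland soil, seeds sown and covered → diluted WP sprayed uniformly onto soil surface (1000 L/ha; 1000 g a.i./ha) → greenhouse → effect scored day 21.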

[2] = system: Amaranthus viridis L.; assay: as above; conditions: 1000 g active ingredient per hectare, 21st day after treatment, criteria of Table 138
Outline: as §1

[3] = system: Echinochloa oryzicola Vasing; assay: Herbicidal effects in paddy field soil treatment (Test Example 1); conditions: paddy field soil treatment; 1000 g of the active ingredient per hectare; wettable powder added dropwise on water surface; 21st day after treatment
Outline: (§2)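 Sow seeds in puddled, leveled paddy soil; waterlog to 3 cm depth. On the following day apply water-diluted wettable powder onto the water surface (1000 g a.i./ha). Grow in greenhouse and assess herbicidal effect at day 21.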

[4] = system: Scirpus juncoides Roxb. var. ohwianus. T. Koyama; assay: as above; conditions: paddy field soil treatment; 1000 g of the active ingredient per hectare; wettable powder added dropwise on water surface; 21st day after treatment
Outline: as §2

[5] = system: Monochoria vaginalis (Burm. f.) Presl var. plantaginea (Roxb.) Solms-Laub.; assay: as above; conditions: paddy field soil treatment; 1000 g of the active ingredient per hectare; wettable powder added dropwise on water surface; 21st day after treatment
Outline: as §2

[6] = system: Abutilon theophrasti medicus; assay: Herbicidal effects in upland field foliar treatment (Test Example 3); conditions: 1000 g active ingredient per hectare, 14th day after treatment, criteria of Table 138
Outline: (§3)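 Seeds sown in upland soil, grown 2 weeks in greenhouse; whole-plant overhead spray of diluted wettable powder at 1000 g a.i./ha (1000 L/ha); kept in greenhouse; effects graded by criteria at 14 d.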

[7] = system: Amaranthus viridis L.; assay: as above; conditions: 1000 g active ingredient per hectare, 14th day after treatment, criteria of Table 138
Outline: as §3

[8] = system: Echinochloa crus-galli (L.) P. Beauv. var. crus-galli; assay: as above; conditions: 1000 g active ingredient per hectare, 14th day after treatment, criteria of Table 138
Outline: as §3

| SMILES | herbicidal effect (index) on Abutilon theophrasti medicus [1] | herbicidal effect (index) on Amaranthus viridis L. [2] | Herbicidal effects index, Echinochloa oryzicola Vasing [3] | Herbicidal effects index, Scirpus juncoides Roxb. var. ohwianus. T. Koyama [4] | Herbicidal effects index, Monochoria vaginalis (Burm. f.) Presl var. plantaginea (Roxb.) Solms-Laub. [5] | herbicidal effect (index) on Abutilon theophrasti medicus [6] | herbicidal effect (index) on Amaranthus viridis L. [7] | herbicidal effect (index) on Echinochloa crus-galli (L.) P. Beauv. var. crus-galli [8] |
| --- | --- | --- | --- | --- | --- | --- | --- | --- |
| Cc1nnc(-n2c(=O)c(C(=O)C3=C(O)CCCC3=O)nc3ccccc32)s1 [I-270] | 5 | 5 | 5 | 5 | 5 | 5 | 5 | 5 |
| O=C1CCCC(O)=C1C(=O)c1nc2ccccc2n(-c2ccc(Br)cn2)c1=O [I-271] | 5 | 5 | 5 | 5 | 5 | 5 | 5 | 5 |
| Cc1cccnc1-n1c(=O)c(C(=O)C2=C(O)CCCC2=O)nc2ccccc21 [I-272] | 5 | 5 | 5 | 5 | 5 | 5 | 5 | 5 |
| CN1C(=O)COc2ccc(-n3c(=O)c(C(=O)C4=C(O)CCCC4=O)nc4ccccc43)cc21 [I-275] | 4 | 5 | 4 | 5 | 5 | 4 | 5 | 5 |
| O=C1CCCC(O)=C1C(=O)c1nc2ccccc2n(-c2ccc3occc3c2)c1=O [I-277] | 4 | 5 | 5 | 5 | 5 | 5 | 5 | 5 |
| Cc1cc(-n2c(=O)c(C(=O)C3=C(O)CCCC3=O)nc3cc(F)ccc32)no1 [I-281] | 5 | 5 | 5 | 5 | 5 | 5 | 5 | 5 |
| COc1ccc(-n2c(=O)c(C(=O)C3=C(O)CCCC3=O)nc3c(F)cc(F)cc32)cn1 [I-283] | 5 | 5 | 4 | 5 | 5 | 5 | 5 | 4 |
| CCCCn1c(=O)c(C(=O)C2=C(O)CCCC2=O)nc2c(Cl)cccc21 [I-364] | 5 | 5 | 4 | 5 | 5 | 5 | 5 | 5 |
| Cc1cnc(-n2c(=O)c(C(=O)C3=C(O)CCCC3=O)nc3ccccc32)cn1 [I-373] | 5 | 5 | 5 | 5 | 5 | 5 | 5 | 5 |
| Cc1cnc(-n2c(=O)c(C(=O)C3=C(O)CCCC3=O)nc3ccccc32)s1 [I-380] | 5 | 5 | 4 | 5 | 5 | 5 | 5 | 4 |
| O=C1CCCC(O)=C1C(=O)c1nc2ccccc2n(-c2ccccc2)c1=O [II-1] | 5 | 5 | 5 | 5 | 5 | 5 | 5 | 5 |
| O=C(C1=C(O)C2CCC(C2)C1=O)c1nc2ccccc2n(-c2ccccc2)c1=O (stereo not drawn) [II-4] | 4 | 5 | 5 | 5 | 5 | 5 | 5 | 4 |
| CC1(C)C(=O)C(C(=O)c2nc3ccccc3n(-c3ccccc3)c2=O)=C(O)C(C)(C)C1=O [II-5] | 5 | 5 | 5 | 5 | 5 | 5 | 5 | 5 |
| O=C1CCCC(O)=C1C(=O)c1nc2ccccc2n(-c2ccccc2F)c1=O [II-6] | 5 | 5 | 5 | 5 | 5 | 5 | 5 | 5 |
| O=C1CCCC(O)=C1C(=O)c1nc2ccccc2n(-c2cccc(F)c2)c1=O [II-7] | 5 | 5 | 5 | 5 | 5 | 5 | 5 | 5 |
| O=C1CCCC(O)=C1C(=O)c1nc2ccccc2n(-c2ccc(F)cc2)c1=O [II-8] | 5 | 5 | 5 | 5 | 5 | 5 | 5 | 5 |
| O=C1CCCC(O)=C1C(=O)c1nc2ccccc2n(-c2ccccc2Cl)c1=O [II-9] | 5 | 4 | 5 | 5 | 5 | 5 | 5 | 5 |
| O=C1CCCC(O)=C1C(=O)c1nc2ccccc2n(-c2cccc(Cl)c2)c1=O [II-11] | 5 | 5 | 5 | 5 | 5 | 5 | 5 | 5 |
